From the supplement of paper PMC11451515

Experiments:
Details in all cases: 48 h
NOMO1 [1] = test: AUC of viability dose-response curve (% viability x log10 dose units); higher = less sensitive
Summary of the method: (§1)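 Seeding of medium-adapted leukemia cells was at 500 or 1000 cells/well in 1536-well plates, followed by 48 h at 37°C with library compounds in DMSO at 11 threefold doses from 47 μM to 0.79 nM. CellTiter-Glo One luminescence was normalised per plate to DMSO and cell-free wells and fitted as a four-parameter log-logistic function of log10 dose. Area under the curve was integrated by trapezoidal rule, with curves exceeding full viability scaled and curves failing quality control removed.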

P12-Ichikawa [2] = test: as above
Summary of the method: as §1

SEM cells [3] = test: as above
Summary of the method: as §1

SEM cells [4] = test: cell viability relative to DMSO control; higher = less cytotoxic
Summary of the method: (§2)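 NOMO1 or SEM cells were plated at 500 cells/well and P12-Ichikawa cells at 1000 cells/well in 1536-well plates (5 μl), after each leukemia line had been adapted for at least four passages in each medium. Pin dosing delivered library compounds in DMSO at 11 threefold concentrations, 47 μM to 0.79 nM. CellTiter-Glo One luminescence was read after 48 h at 37°C. Viability is reported as a per-plate percentage of DMSO wells, with cell-free wells as background.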

NOMO1 [5] = test: as above
Summary of the method: as §2

P12-Ichikawa [6] = test: as above
Summary of the method: as §2

C[C@]\12CC[C@H](O)CC1=C/C[C@@H]3[C@@H]2CC[C@@]\4(C)[C@H]3C\C=C4C5=CN=CC=C5
AUC of viability dose-response curve
Details	NOMO1 [1]	P12-Ichikawa [2]	SEM cells [3]
HPLM + 10% dialyzed FBS	472	468	469
RPMI 5 mM glucose + 10% FBS	472	460	456
RPMI 5 mM glucose + 10% dialyzed FBS	454	459	469

COC(=O)Nc1nc2cc(C(=O)c3ccccc3)ccc2[nH]1
cell viability [%], SEM cells [4]
Details	HPLM + 10% dialyzed FBS	RPMI 5 mM glucose + 10% FBS
0.000781 µM	115	120
0.00234 µM	124	125
0.00702 µM	130	125
0.0211 µM	126	122
0.0632 µM	100	96.4
0.19 µM	24.4	18
0.569 µM	69.6	59.3
1.71 µM	128	86.8
5.12 µM	26.6	22.6
15.4 µM	24.1	23.4
46.1 µM	24.1	19.2

AUC of viability dose-response curve
Details	HPLM + 10% dialyzed FBS	RPMI 5 mM glucose + 10% FBS	RPMI 5 mM glucose + 10% dialyzed FBS
NOMO1 [1]	401	389	397
SEM cells [3]	303	286	291

C[C@H](CCC(=O)O)[C@H]1CC[C@H]2[C@@H]3[C@@H](O)C[C@@H]4C[C@H](O)CC[C@]4(C)[C@H]3CC[C@]12C
AUC of viability dose-response curve
Details	NOMO1 [1]	P12-Ichikawa [2]	SEM cells [3]
HPLM + 10% dialyzed FBS	401	445	441
RPMI 5 mM glucose + 10% FBS	414	461	462
RPMI 5 mM glucose + 10% dialyzed FBS	398	435	449

CC(C)c1noc(N2CCC(COc3ccc(-c4ccc([S+](C)(=O)[O-])cc4)nc3)CC2)n1
cell viability [%]
Details	NOMO1 [5]	P12-Ichikawa [6]	SEM cells [4]
HPLM + 10% dialyzed FBS, 0.000781 µM	122	117	131
HPLM + 10% dialyzed FBS, 0.00234 µM	104	117	81.5
HPLM + 10% dialyzed FBS, 0.00702 µM	117	113	115
HPLM + 10% dialyzed FBS, 0.0211 µM	103	120	122
HPLM + 10% dialyzed FBS, 0.0632 µM	122	122	132
HPLM + 10% dialyzed FBS, 0.19 µM	108	114	32.7
HPLM + 10% dialyzed FBS, 0.569 µM	120	112	128
HPLM + 10% dialyzed FBS, 1.71 µM	109	106	84.8
HPLM + 10% dialyzed FBS, 5.12 µM	94.3	103	16.3
HPLM + 10% dialyzed FBS, 15.4 µM	109	98.7	122
HPLM + 10% dialyzed FBS, 46.1 µM	116	103	109
RPMI 5 mM glucose + 10% FBS, 0.000781 µM	114	118	111
RPMI 5 mM glucose + 10% FBS, 0.00234 µM	113	120	73.4
RPMI 5 mM glucose + 10% FBS, 0.00702 µM	122	119	140
RPMI 5 mM glucose + 10% FBS, 0.0211 µM	118	112	126
RPMI 5 mM glucose + 10% FBS, 0.0632 µM	121	119	134
RPMI 5 mM glucose + 10% FBS, 0.19 µM	114	109	23.1
RPMI 5 mM glucose + 10% FBS, 0.569 µM	122	110	120
RPMI 5 mM glucose + 10% FBS, 1.71 µM	104	118	53.1
RPMI 5 mM glucose + 10% FBS, 5.12 µM	105	111	12.9
RPMI 5 mM glucose + 10% FBS, 15.4 µM	110	113	114
RPMI 5 mM glucose + 10% FBS, 46.1 µM	100	101	112
RPMI 5 mM glucose + 10% dialyzed FBS, 0.000781 µM	118	117	111
RPMI 5 mM glucose + 10% dialyzed FBS, 0.00234 µM	122	105	56
RPMI 5 mM glucose + 10% dialyzed FBS, 0.00702 µM	118	120	136
RPMI 5 mM glucose + 10% dialyzed FBS, 0.0211 µM	122	108	138
RPMI 5 mM glucose + 10% dialyzed FBS, 0.0632 µM	117	114	115
RPMI 5 mM glucose + 10% dialyzed FBS, 0.19 µM	128	110	28.8
RPMI 5 mM glucose + 10% dialyzed FBS, 0.569 µM	119	106	111
RPMI 5 mM glucose + 10% dialyzed FBS, 1.71 µM	109	110	60.4
RPMI 5 mM glucose + 10% dialyzed FBS, 5.12 µM	116	100	10.3
RPMI 5 mM glucose + 10% dialyzed FBS, 15.4 µM	113	112	100
RPMI 5 mM glucose + 10% dialyzed FBS, 46.1 µM	107	97.4	104

AUC of viability dose-response curve
Details	HPLM + 10% dialyzed FBS	RPMI 5 mM glucose + 10% FBS	RPMI 5 mM glucose + 10% dialyzed FBS
NOMO1 [1]	467	459	463
P12-Ichikawa [2]	454	453	452
